From patent publication US11844823B2, “Beta-hairpin peptidomimetic with elastase inhibitory activity and aerosol dosage forms thereof” (POLYPHOR AG, priority 2016, dated 2023)
Non-standard residues stand in square brackets, D forms with d. Residues, ends and D or L forms follow the SMILES beside them. Gly(octyl) = CCCCCCCC[C@H](N)C(=O)O

Assays:
cynomolgus monkeys = experiment: GLP-compliant 28-day inhalation toxicity study in monkeys; assay type: in vivo, cynomolgus monkey
Description: In a GLP-compliant 28-day inhalation toxicity study in cynomolgus monkeys, conducted by Charles River Laboratories Preclinical Services, Tranent, Edinburgh, UK, the formulation described in Example 2 and dilutions thereof as well as the vehicle were administered using the Pari eFlow® XL 30 nebulizer device (Pari Pharma, Starnberg, Germany) with an oro-nasal inhalation mask for 60 min per day for 28 days, followed by a 2-week recovery period. […] In total five males and five females were used for each dose of the toxicity study including recovery. Parameters assessed included clinical signs, body weights, electrocardiology, ophthalmic examination, clinical pathology, toxicokinetic parameters in the plasma, gross necropsy findings, organ weights and histopathologic examinations.

neutrophil elastase = experiment: LPS/fMLP model of neutrophil activation in the rat, inhalation; neutrophil elastase activity in BAL supernatant; assay type: in vivo; details: for NE activity in BAL fluid: mean ± s.e.m., vehicle 0.25 ± 0.02, p < 0.0001
Description: The purpose of this study (conducted by Envigo CRS Limited, Alconbury, Huntingdon, United Kingdom) was to evaluate the effects of acetate salt of cyclo(-OctG-Glu-Thr-Ala-Ser-Ile-Pro-Pro-Gln-Lys-Tyr-^DPro-Pro-) administered by inhalation in a LPS/fMLP model of neutrophil activation in the rat.
Animals were challenged with aerosolized LPS (lipopolysaccharide, 1 mg/mL) for 30 min. Approximately 3 h following end of LPS challenge, animals were administered either vehicle or formulations as described above of acetate salt of cyclo(-OctG-Glu-Thr-Ala-Ser-Ile-Pro-Pro-Gln-Lys-Tyr-^DPro-Pro-) by inhalation (Groups 1-4) over a 30 min period using an eFlow® 30 XL electronic nebulizer (Pari Pharma GmbH, Starnberg, Germany; snout only exposure). All animals were dosed with fMLP (N-formyl-Met-Leu-Phe, 5 mg/kg) approximately 4 h post completion of the LPS challenge via the intratracheal route under transient gaseous anaesthesia at a dose volume of 1 mL/kg. Approximately 2 h after fMLP administration, animals were terminated and a bronchoalveolar lavage (BAL) was performed to evaluate inflammatory cell infiltrate and neutrophil elastase activity.
Following confirmation of death, the trachea of an animal was isolated, the tracheal cannula inserted and secured in place, and the airway was lavaged with 3 mL of phosphate buffered saline (PBS). The lavage was repeated twice and in total, three lots of 3 mL of PBS were used. The first lavage aliquot containing cells was placed into a 15 mL centrifuge tube on wet ice (Tube A). The BAL fluid pooled from the second two lavages was placed into a second tube (Tube B). Tube A and B were placed on wet ice until centrifuged. Centrifugation was performed at 800×g for 10 min at ca. 4° C. and the supernantant was harvested. Until neutrophil elastase analysis supernantant was stored at ca. […].
The two aliquots of BAL supernatant were analyzed for neutrophil elastase activity as follows: 120 μl of BAL supernatant from aliquot 1 was transferred to a 96 well plate (Corning #3650). In parallel, a dilution range from 1.6 to 0.025 mU/well of a commercial human neutrophil elastase (hNE, Serva #20927.01) was prepared. 120 μl of each hNE dilution were transferred in duplicate to the 96-well plate. To start the enzymatic reaction, 80 μl of a fluorescent peptide substrate (MeOSuc-Ala-Ala-Pro-Val-AMC) at a final concentration of 500 μM was added to each well and the plate was immediately placed in the victor2v fluorescent reader pre-warmed at 37° C. Fluorescence (λexc. 485 nm, λem. 535 nm) was recorded for 2 h at 37° C. Enzyme initial velocity (RFU/min) of all samples was calculated and converted in mU/mL hNE equivalent, using the linear regression equation obtained from the plot (RFU/min vs mU/mL of hNE dilution) of the human neutrophil elastase standard range. The assay was repeated using BAL supernatant from aliquot 2. The neutrophil elastase data reported is a mean of the neutrophil elastase activity from both aliquots.

Structure (SMILES): CCCCCCCC[C@@H]1NC(=O)[C@@H]2CCCN2C(=O)[C@H]2CCCN2C(=O)[C@H](Cc2ccc(O)cc2)NC(=O)[C@H](CCCCN)NC(=O)[C@H](CCC(N)=O)NC(=O)[C@@H]2CCCN2C(=O)[C@@H]2CCCN2C(=O)[C@H]([C@@H](C)CC)NC(=O)[C@H](CO)NC(=O)[C@H](C)NC(=O)[C@H]([C@@H](C)O)NC(=O)[C@H](CCC(=O)O)NC1=O [cyclo(-OctG-Glu-Thr-Ala-Ser-Ile-Pro-Pro-Gln-Lys-Tyr-^DPro-Pro-)] (cyclo([Gly(octyl)]ETASIPPQKY[dP]P))
- histopathologic findings (cynomolgus monkeys; cynomolgus monkey, in vivo): increased numbers of alveolar macrophages, perivascular/peribronchiolar infiltrates, and granular eosinophilic deposits in the lung and lymphoid hyperplasia in the tracheobronchial lymph nodes
- body weight, clinical signs, ophthalmic, electrocardiographic findings, urinary parameters (cynomolgus monkeys; monkey, 11.2, 30.1 and 112 mg/kg/day): no body weight changes, clinical signs, ophthalmic or electrocardiographic findings or changes in urinary parameters attributable to drug treatment
- NE activity in BAL fluid (neutrophil elastase; 0.3 mg/kg inhalation): 0.10 ± 0.01 mU/mL eq.
- NE activity in BAL fluid (neutrophil elastase; 3 mg/kg inhalation): 0.11 ± 0.01 mU/mL eq.
- NE activity in BAL fluid (neutrophil elastase; 30 mg/kg inhalation): 0.07 ± 0.01 mU/mL eq.
- effect on neutrophil elastase activity in BAL fluid (neutrophil elastase; 0.3, 3 and 30 mg/kg by inhalation 3 h post LPS, 1 h prior to fMLP, BAL 6 h post LPS): significantly inhibited
- clinical signs between dosing and study termination (neutrophil elastase; rat, inhalation 0.3-30 mg/kg): No test item related clinical signs
